Assay results taken from paper PMC12169615, “Fluorescent 4‑Nitrobenzo-2-oxa-1,3-diazole-Coupled Bile Acids as Probe Substrates of Hepatic and Intestinal Bile Acid Transporters of the Solute Carrier Families SLC10 and SLCO” (Journal of Medicinal Chemistry, 2025).

Tests used:
[1] = parameters: method as in Petzinger et al.; details: after in situ ileal perfusion, rat, within 120 min; ref Petzinger et al.; cited from earlier work
mouse mAsbt = target: T1, mouse mAsbt (Mus musculus, UniProt P70172); experiment: cell-based
T1 sequence (P70172 1-348): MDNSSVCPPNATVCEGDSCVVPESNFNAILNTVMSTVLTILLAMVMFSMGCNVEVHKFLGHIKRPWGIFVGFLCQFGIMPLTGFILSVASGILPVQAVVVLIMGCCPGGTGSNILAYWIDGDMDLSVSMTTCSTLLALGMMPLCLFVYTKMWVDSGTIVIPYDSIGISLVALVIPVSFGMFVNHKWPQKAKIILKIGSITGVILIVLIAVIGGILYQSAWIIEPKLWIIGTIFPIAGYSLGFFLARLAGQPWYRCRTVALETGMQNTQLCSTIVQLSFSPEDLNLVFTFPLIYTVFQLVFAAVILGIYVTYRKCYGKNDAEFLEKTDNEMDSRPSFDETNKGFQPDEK
Experimental: (§1) HEK293 cells stably expressing human NTCP (A), mouse mNtcp (B), human ASBT (C), or mouse mAsbt (D) were used for transport experiments with 3α-NBD-GCA (16d) as the substrate. Fluorescence data in the absence of inhibitors were set as 100% and the fluorescence levels in sodium-free transport buffer were set to 0%. […] Half-maximal inhibitory concentrations (IC50) were calculated by nonlinear regression analysis.
(§2) For quantitative transport experiments, cells were seeded onto polylysine-coated 96-well plates and grown to confluence over 72 h at 37 °C. Then, cells were washed three times with phosphate-buffered saline (PBS), containing 137 mM NaCl, 2.7 mM KCl, 1.5 mM, KH2PO4, and 7.3 mM Na2HPO4 (pH 7.4) followed by preincubation in sodium transport buffer (STB) containing 142.9 mM NaCl, 4.7 mM KCl, 1.2 mM MgSO4, 1.2 mM KH2PO4, 1.8 mM CaCl2, and 20 mM HEPES (pH 7.4). For transport assays under sodium-free conditions (-Na^+), sodium chloride of the STB was substituted with equimolar concentrations of choline chloride. […] Then, transport experiments were started by adding 20 μL STB containing 125 μM of 3α-NBD-GCA (final substrate concentration: 25 μM). All transport experiments were stopped after 10 min, if not otherwise indicated, by aspirating the transport buffer and washing the cells twice with ice-cold PBS. […]

human ASBT = target: T2, human ASBT (Homo sapiens, UniProt Q12908); experiment: cell-based
T2 sequence (Q12908 1-348): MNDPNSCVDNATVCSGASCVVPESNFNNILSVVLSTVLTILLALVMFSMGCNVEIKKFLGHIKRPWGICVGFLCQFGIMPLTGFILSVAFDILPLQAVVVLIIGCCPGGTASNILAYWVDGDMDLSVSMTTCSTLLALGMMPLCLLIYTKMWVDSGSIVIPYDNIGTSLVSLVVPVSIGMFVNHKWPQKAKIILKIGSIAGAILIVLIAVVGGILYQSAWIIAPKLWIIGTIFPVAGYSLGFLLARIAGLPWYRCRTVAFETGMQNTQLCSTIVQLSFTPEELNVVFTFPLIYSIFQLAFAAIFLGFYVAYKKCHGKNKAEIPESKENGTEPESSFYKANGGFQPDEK
Experimental: as §1, §2

IC50 (mouse mAsbt) [µM]	IC50 (human ASBT) [µM]	Structure (SMILES)	Compound secreted into bile [1] [%]
		C[C@H](CCC(=O)NCCS(=O)(=O)O)[C@H]1CC[C@H]2[C@@H]3[C@H](O)C[C@@H]4CC(Nc5ccc([N+](=O)[O-])c6nonc56)CC[C@]4(C)[C@H]3C[C@H](O)[C@]12C (stereo partly drawn) [S4148]	76
18.9	19.5	Cc1c(C)c2c(c(C)c1O)CCC(C)(COc1ccc(CC3SC(=O)NC3=O)cc1)O2 (stereo not drawn) [troglitazone]	
